Laboratory results as given in patent US12102618B2, “Use of riluzole prodrugs to treat ataxias” (Biohaven Therapeutics Ltd., priority 2017, dated 2024).

Tests used:
Type in all cases: in vivo, human
[1] = test system: ataxia symptoms in subjects with spinocerebellar ataxia (SCA); assay: Phase IIb/III randomized, double-blind, placebo-controlled trial of BHV-4157 in SCA (BHV4157-201), 8-week randomization phase: SARA; details: lighter median
Method: One measure for assessment of the methods of the present invention is by using the Scale for the Assessment and Rating of Ataxia (“SARA”).
The SARA was developed as a clinician-administered instrument to measure severity of symptoms in patients with SCA. While there are multiple scales available, the SARA has been tested in many patients with SCA.
The SARA scores range from 0 (no ataxia) to 40 (severe). The SARA takes approximately 15 minutes to administer. Assessed items include: • Gait (rated 0 to 8) • Stance (0 to 6) • Sitting (0 to 4) • Speech disturbance (0 to 6) • Finger chase (0 to 4) • Nose-finger test (0 to 4) • Fast alternating hand movements (0 to 4) • Heel-shin slide (0 to 4)
Once each of the 8 categories has been assessed, the total score is calculated to determine the severity of ataxia. For motor activities of the four extremities (items 5-8), assessments are performed bilaterally and the mean values are used to obtain the total score.
The purpose of this study is to compare the efficacy of BHV-4157 versus placebo on ataxia symptoms in subjects with spinocerebellar ataxia (SCA).
(§1) Study Type: Interventional Study Design: Allocation: Randomized • Intervention Model: Parallel Assignment • Masking: Quadruple (Participant, Care Provider, Investigator, Outcomes Assessor) • Primary Purpose: Treatment • Official Title: A Phase IIb/III, Randomized, Double-blind, Placebo-controlled Trial of BHV-4157 in Adult Subjects With Spinocerebellar Ataxia Primary Outcome Measures: • To measure the change in total score on the Scale for Assessment and Rating of Ataxia (SARA) [Time Frame: The change in total score from baseline to week 8.] Secondary Outcome Measures: • To assess the safety and tolerability of BHV-4157 in subjects with SCA by measuring the frequency and severity of adverse events and discontinuations of adverse events. [Time Frame: Baseline to week 8.] Measured by the frequency and severity of adverse events and discontinuations of adverse events. • To compare efficacy of BHV-4157 with placebo on patient impression of benefit via use of the PGI-C [Time Frame: Baseline to Week 8] Change in PGI-C score
(§2) The study is a Phase IIb/III, multicenter, randomized, double-blind, 2-arm placebo-controlled parallel-group study designed to assess safety, tolerability, and efficacy signals in a population of patients with Spinocerebellar Ataxia (SCA). Subjects will be randomized to receive placebo (QD) or BHV-4157 (140 mg QD), stratified by diagnosis (genotype) and baseline severity (Gait Item of the SARA of ≤4 and >4). Subjects with SCA3 genotype will be limited to comprise up to approximately 10% of the total population so that this most common type of SCA is not over-represented.
Dosing will continue for 8 weeks. Subjects will return to the clinic two weeks after discontinuing study medication for a follow-up safety visit. In addition, subjects completing the Randomization Phase will be offered 48 weeks of open-label treatment as long as the PI believes open-label treatment offers an acceptable risk-benefit profile. Subjects who agree to enter the Extension Phase will not be required to wash-out of drug or complete the follow-up safety visit, but instead should continue dosing as specified in the extension phase. Subjects entering the Extension Phase would have their first Extension Visit four weeks after the Week 8 Randomization Phase visit. If there is a delay of two weeks or more in dosing between the Randomization Phase and the Extension Phase, subjects will be required to complete an Extension Baseline Visit. Thereafter, subjects will undergo visits every fourth week through Week 12 of this phase. Then subjects will undergo visits every 12 weeks up to Week 48 of this phase.

[2] = test system: subjects with spinocerebellar ataxia (SCA); assay: Same trial: Clinical Global Impression-Global Improvement (CGI-I)
Method: Clinical Global Impression-Global Improvement (CGI-I)
as §2

[3] = test system: subjects with spinocerebellar ataxia (SCA); assay: Same trial: Patient Global Impression of Change (PGI-C)
Description: This is a patient self-reported global index scale that may be used to rate the response of a condition to a therapy.
as §1, §2

[4] = test system: patients with Spinocerebellar Ataxia (SCA); assay: BHV4157-201 open-label extension phase, interim analysis: modified SARA (axial items)
Description: This example describes a study entitled: Interim Extension Phase Analyses of Study BHV4157-201: Phase IIb/III, Randomized, Double-blind, Placebo-controlled Trial of Troriluzole (BHV-4157) in Adult Subjects with Spinocerebellar Ataxia followed by 96-Week Open-Label Extension Phase.
To date, all subjects have had the chance to complete the Week 24 visit from the long term, open-label extension phase of the trial.
BHV4157-201 is an on-going Phase IIb/III, multicenter, randomized, double-blind, 2-arm placebo-controlled parallel-group study designed to assess safety, tolerability, and efficacy in a population of patients with Spinocerebellar Ataxia (SCA). The study is comprised of two periods: an 8-week randomization period, followed by a 96-week open-label extension period. Regarding key entry criteria, subjects were male and female outpatients between the ages of 18-75 years, inclusive, with a known or suspected diagnosis of the following hereditary ataxias: SCA1, SCA2, SCA3, SCA6, SCA7, SCA8 and SCA10. All subjects completed genetic testing to confirm the diagnosis of hereditary ataxias. The primary objective of the study is to compare the efficacy of troriluzole versus placebo on ataxia symptoms in patients with SCA as measured by the total score on the Scale for the Assessment and Rating of Ataxia (SARA). Secondary objectives include assessments of functional disability, non-ataxia symptoms associated with SCA, global functioning, performance-based measures of ataxia, and neuropsychiatric and cognitive functioning.
During the 8-week Randomization Phase of the study, which has been completed, 141 subjects were randomized, in a 1:1 ratio, to receive either BHV-4157 (140 mg daily) or Placebo. Subjects completing the Randomization Phase were offered approximately 96 weeks of open-label treatment, provided the investigator believed open-label treatment offered an acceptable risk-benefit profile.

[5] = test system: subjects with spinocerebellar ataxia (SCA); assay: Further analysis of Example 1 study: Modified SARA, 8 week change from baseline; details: for change in SARA score (difference BHV-4157 vs placebo): enriched genotypes
Description: This example describes a further analysis of the study of Example 1.

[6] = Tolerability in BHV4157-201 trial; details: patients with SCA
Description: as §1, with “Secondary Outcome Measures: • To assess the safety and tolerability of BHV-4157 in subjects with SCA by measuring the frequency and severity of adverse events and discontinuations of adverse events. [Time Frame: Baseline to week 8.]” left out, “Change in PGI-C score” left out
BHV4157-201 is an on-going Phase IIb/III, multicenter, randomized, double-blind, 2-arm placebo-controlled parallel-group study designed to assess safety, tolerability, and efficacy in a population of patients with Spinocerebellar Ataxia (SCA). […] The primary objective of the study is to compare the efficacy of troriluzole versus placebo on ataxia symptoms in patients with SCA as measured by the total score on the Scale for the Assessment and Rating of Ataxia (SARA). […]

In the case of `CN(CC(=O)Nc1nc2ccc(OC(F)(F)F)cc2s1)C(=O)CNC(=O)CN` [BHV-4157, troriluzole], the “Responder Analysis, ≥3 points in Stable Subjects (n = 36)” value ([1]; printed on line EXP Sites) is reported as 39%, the “Responder Analysis, ≥3 points at Experienced sites (n = 36)” value ([1]; printed on line Stable Subgroup) is reported as 26% and the “CGI Much Improved” value ([2]; Lighter at EXP sites) is reported as 14%. For the same compound, the “CGI Any Improvement” value ([2]; Lighter at EXP sites, n = 15) was 60% (n = 15), the “CGI Much Improved” value ([2]; Lighter sample) was 27% and the “CGI Any Improvement” value ([2]; Lighter sample, n = 22) was 64% (n = 22). The “PGI Better and Definite . . .” value ([3]; Lighter at EXP sites) was 19%, the “PGI Any Improvement” value ([3]; Lighter at EXP sites, n = 16) was 45% (n = 16) and the “PGI “Better and Definite Improvement that has made a real & worthwhile difference”” value ([3]; Lighter sample) was 17%. The “PGI Any Improvement” value ([3]; Lighter sample, n = 23) was 34% (n = 23), the “Mod SARA change (SD) from Randomization Baseline” value (“Mod SARA change (SD)” below) ([4]; All Patients, 8 weeks) was −0.4 (1.50) and the “Mod SARA change (SD)” value ([4]; All Patients, 36 weeks) was −0.1 (1.30). For the same compound, the “Mod SARA change (SD)” value ([4]; Female Subgroup, 8 weeks) was −0.3 (1.48), the “Mod SARA change (SD)” value ([4]; Female Subgroup, 24 weeks) was −0.4 (1.32) and the “Mod SARA change (SD)” value ([4]; Female Subgroup, 36 weeks) was −0.1 (1.41). The “Mod SARA change (SD)” value ([4]; Female Subgroup, 48 weeks) was −0.1 (1.50), the “Mod SARA change (SD)” value ([4]; Low Weight Subgroup, 8 weeks) was −0.6 (1.56) and the “Mod SARA change (SD)” value ([4]; Low Weight Subgroup, 24 weeks) was −0.5 (1.44). The “Mod SARA change (SD)” value ([4]; Low Weight Subgroup, 36 weeks) was −0.3 (1.34), the “Mod SARA change (SD)” value ([4]; Low Weight Subgroup, 48 weeks) was −0.2 (1.41) and the “Mod SARA change (SD)” value ([4]; Non-SCA1 & SCA2, 8 weeks) was −0.3 (1.58). For the same compound, the “Mod SARA change (SD)” value ([4]; Non-SCA1 & SCA2, 24 weeks) was −0.3 (1.24), the “Mod SARA change (SD)” value ([4]; Non-SCA1 & SCA2, 36 weeks) was −0.1 (1.44) and the “Mod SARA change (SD)” value ([4]; Non-SCA1 & SCA2, 48 weeks) was −0.2 (1.44). For the same compound, the “Mod SARA change (SD)” value ([4]; SCA1 & SCA2, 8 weeks) was −0.5 (1.47), the “Mod SARA change (SD)” value ([4]; SCA1 & SCA2, 24 weeks) was −0.4 (1.45) and the “Mod SARA change (SD)” value ([4]; SCA1 & SCA2, 36 weeks) was −0.1 (1.20). The “Mod SARA change (SD)” value ([4]; SCA1 & SCA2, 48 weeks) was 0.1 (1.44), the “improvement in the axial SARA score” value ([4]; at 6 months) was −0.1 point and the “Modified SARA, week 8 StdChg” value ([5]; All SCA, n = 63, May-18) was 0.453. The “Modified SARA, week 8 Δ Mean” value ([5]; All SCA, n = 63, May-18) was −0.429, the “Modified SARA, week 8 StdChg” value ([5]; SCA1 and SCA2, first Stable column, n = 31) was 0.405 and the “Modified SARA, week 8 Δ Mean” value ([5]; SCA1 and SCA2, first column headed Stable (−1 < diff < 1), n = 31, Stable 2 in Table 16) was −0.387. The “Modified SARA, week 8 StdChg” value ([5]; SCA1 and SCA2, n = 33) was 0.399, the “Modified SARA, week 8 Δ Mean” value ([5]; SCA1 and SCA2, n = 33, May-18) was −0.424 and the “Modified SARA, week 8 StdChg” value ([5]; SCA1 and SCA2, second Stable column, n = 14) was 0.313. The “Modified SARA, week 8 Δ Mean” value ([5]; SCA1 and SCA2, second column headed Stable (−1 < diff < 1), n = 14, Stable 1 in Table 16) was −0.286, the “change in SARA score (difference BHV-4157 vs placebo)” value ([5]; stable 2 group, 8 weeks) was 0.24 and the “change in SARA score (difference BHV-4157 vs placebo)” value ([5]; stable group 1, 8 weeks) was 0.20. The tolerability profile [6] was “favorable”.
